What was measured:
Plasmodium falciparum [1] = experiment: In vitro antimalarial activity against Plasmodium falciparum D6 (Sierra Leone); type: functional, organism-based
Plasmodium falciparum [2] = experiment: In vitro antimalarial activity against Plasmodium falciparum W2 (Indochina); type: functional, organism-based

| SMILES | IC50 (Plasmodium falciparum [1]) | IC50 (Plasmodium falciparum [2]) |
| --- | --- | --- |
| CC1(C)CCCCC12OOC1(CCCCC1(C)C)OO2 (stereo unspecified) | > 1000 nM | > 1000 nM |
| C[C@@H]1CCC[C@@H](C)C12OOC1(OO2)[C@@H](C)CCC[C@@H]1C | > 1000 nM | > 1000 nM |
| C[C@@H]1CC[C@H]2[C@@H](C)C(=O)O[C@@H]3O[C@@]4(C)CC[C@@H]1[C@]32OO4 [ARTEMISININ] | 8.4 nM | 7.3 nM |

Reference: ChEMBL document CHEMBL1133601, “Methyl-substituted dispiro-1,2,4,5-tetraoxanes: correlations of structural studies with antimalarial activity” (J Med Chem, 2000)
